Experimental data as given in patent publication US20200002377A1, “COMPOUNDS USEFUL FOR THE TREATMENT AND/OR CARE OF THE SKIN, HAIR, NAILS AND/OR MUCOUS MEMBRANES” (LUBRIZOL ADVANCED MATERIALS, INC., priority 2016, published 2020).
Residues, ends and D or L forms follow the SMILES beside them. *: point of attachment. Palmitoyl = CCCCCCCCCCCCCCCC(=O)*; NHhexadecyl = CCCCCCCCCCCCCCCCN*; Myristoyl = CCCCCCCCCCCCCC(=O)*; NHHex = CCCCCCN*

Legend:
[1] = tested on: Nuclear Factor Kappa B subunit 1 (NFKB1); assay: Innate immune response gene expression in HEKa, real time PCR array; format: cell-based, human; details: 50 μg/ml, 24 h
[2] = tested on: Staphylococcus epidermidis; assay: Adherence of Staphylococcus epidermidis in keratinocytes (HaCaT) in competition with S. aureus bioparticles; format: cell-based; details: 50 μg/ml, 24 h, basal = 0
Method: After that treatment, cells are washed with phosphate-buffered saline (PBS, Sigma) and are then incubated with a solution of Staphylococcus epidermidis (ATCC®12228™, Culture Collections) treated with green-fluorescence calcein AM (Life technologic) and Alexa Fluor 594™ Bioparticles Staphylococcus aureus (ThermoFisher) in PBS for 30 minutes at 37° C. and protected from light. At the end of the incubation period, cells are washed with PBS and fixed in 4% (v/v) paraformaldehyde (PFA, Sigma) for 30 minutes. After rinsing with PBS, the nuclei are stained with Hoechst 33342, trihydrochloride trihydrate (ThermoFisher) in PBS for 10 minutes before analysis.
Cellular imaging is performed by fluorescence microscopy using the Operetta® High Content Imaging System (PerkinElmer). From each fluorescence image, Staphylococcus epidermidis is quantified as a number of spots and normalized against the number of keratinocyte nuclei and the total bacteria number (understood as the addition of detected S. epidermidis spots and S. aureus bioparticles). Each value obtained is normalized respect to basal conditions (non-treated keratinocytes). An image is taken in three different fields per well. 12 representative images from each condition are analyzed with Harmony software (PerkinElmer).
The normalized percentage of Staphylococcus epidermidis respect to basal conditions in treated keratinocytes is represented in Table 17.

## Ac-EEMQRRAQ-NH2 [PEP-19, Ac-Glu-Glu-Met-Gln-Arg-Arg-Ala-Gln-NH2]
[1]
  NFKB1 fold induction respect to basal conditions: 2.73
[2]
  S. epidermidis (%), normalized percentage respect to basal conditions: 81.69%

## CCCCCCCCCCCCCCCCNC(=O)[C@H](CC(=O)O)NC(=O)[C@H](C)NC(=O)[C@H](CCCNC(=N)N)NC(=O)[C@H](CCCNC(=N)N)NC(=O)[C@H](CCC(N)=O)NC(=O)[C@H](CCSC)NC(=O)[C@H](CCC(=O)O)NC(=O)[C@H](CCC(=O)O)NC(C)=O [PEP-35, Ac-Glu-Glu-Met-Gln-Arg-Arg-Ala-Asp-NHC16H33] (Ac-EEMQRRAD-NHhexadecyl)
[1]
  NFKB1 fold induction respect to basal conditions: 2.79
[2]
  S. epidermidis (%), normalized percentage respect to basal conditions: 90.22%

## CCCCCCCCCCCCCCCC(=O)N[C@@H](CCC(=O)O)C(=O)N[C@@H](CCC(=O)O)C(=O)N[C@@H](CCSC)C(=O)N[C@@H](CCC(N)=O)C(=O)N[C@@H](CCCNC(=N)N)C(=O)N[C@@H](CCCNC(=N)N)C(=O)N[C@@H](C)C(=O)N[C@@H](CC(=O)O)C(N)=O [PEP-27, Palm-Glu-Glu-Met-Gln-Arg-Arg-Ala-Asp-NH2] (Palmitoyl-EEMQRRAD-NH2)
[1]
  NFKB1 fold induction respect to basal conditions: 2.76
[2]
  S. epidermidis (%), normalized percentage respect to basal conditions: 27.62%

## Ac-DEMERRA-NH2 [PEP-40, Ac-Asp-Glu-Met-Glu-Arg-Arg-Ala-NH2]
[1]
  NFKB1 fold induction respect to basal conditions: 2.55
[2]
  S. epidermidis (%), normalized percentage respect to basal conditions: 20.56%

## Ac-EEMQKK-NH2 [PEP-54, Ac-Glu-Glu-Met-Gln-Lys-Lys-NH2]
[1]
  NFKB1 fold induction respect to basal conditions: 2.15
[2]
  S. epidermidis (%), normalized percentage respect to basal conditions: 10.91%

## Ac-EEMQRRAE-NH2 [PEP-17, Ac-Glu-Glu-Met-Gln-Arg-Arg-Ala-Glu-NH2]
[1]
  NFKB1 fold induction respect to basal conditions: 2.32
[2]
  S. epidermidis (%), normalized percentage respect to basal conditions: 11.33%

## CCCCCCCCCCCCCC(=O)N[C@@H](CCC(=O)O)C(=O)N[C@@H](CCC(=O)O)C(=O)N[C@@H](CCSC)C(=O)N[C@@H](CCC(N)=O)C(=O)N[C@@H](CCCNC(=N)N)C(=O)N[C@@H](CCCNC(=N)N)C(N)=O [PEP-5, Myr-Glu-Glu-Met-Gln-Arg-Arg-NH2] (Myristoyl-EEMQRR-NH2)
[1]
  NFKB1 fold induction respect to basal conditions: 2.64
[2]
  S. epidermidis (%), normalized percentage respect to basal conditions: 27.52%

## Ac-EEMQRRAN-NH2 [PEP-18, Ac-Glu-Glu-Met-Gln-Arg-Arg-Ala-Asn-NH2]
[1]
  NFKB1 fold induction respect to basal conditions: 2.69
[2]
  S. epidermidis (%), normalized percentage respect to basal conditions: 26.35%

## CCCCCCCCCCCCCCCC(=O)N[C@@H](CCC(=O)O)C(=O)N[C@@H](CCC(=O)O)C(=O)N[C@@H](CCSC)C(=O)N[C@@H](CCC(N)=O)C(=O)N[C@@H](CCCNC(=N)N)C(=O)N[C@@H](CCCNC(=N)N)C(=O)N[C@@H](C)C(=O)N[C@@H](CC(N)=O)C(=O)O [PEP-33, Palm-Glu-Glu-Met-Gln-Arg-Arg-Ala-Asn-OH] (Palmitoyl-EEMQRRAN-OH)
[1]
  NFKB1 fold induction respect to basal conditions: 2.63
[2]
  S. epidermidis (%), normalized percentage respect to basal conditions: 58.74%

## Ac-EEMQRRTD-NH2 [PEP-21, Ac-Glu-Glu-Met-Gln-Arg-Arg-Thr-Asp-NH2]
[1]
  NFKB1 fold induction respect to basal conditions: 2.39
[2]
  S. epidermidis (%), normalized percentage respect to basal conditions: 16.21%

## CCCCCCCCCCCCCCCCNC(=O)[C@H](CCCNC(=N)N)NC(=O)[C@H](CCCNC(=N)N)NC(=O)[C@H](CCC(N)=O)NC(=O)[C@H](CCSC)NC(=O)[C@H](CCC(=O)O)NC(=O)[C@H](CCC(=O)O)NC(C)=O [PEP-7, Ac-Glu-Glu-Met-Gln-Arg-Arg-NHC16H33] (Ac-EEMQRR-NHhexadecyl)
[1]
  NFKB1 fold induction respect to basal conditions: 3.09
[2]
  S. epidermidis (%), normalized percentage respect to basal conditions: 11.43%

## Ac-QEMQRRAD-NH2 [PEP-9, Ac-Gln-Glu-Met-Gln-Arg-Arg-Ala-Asp-NH2]
[1]
  NFKB1 fold induction respect to basal conditions: 2.66
[2]
  S. epidermidis (%), normalized percentage respect to basal conditions: 21.36%

## CCCCCCCCCCCCCCCC(=O)N[C@@H](CCC(=O)O)C(=O)N[C@@H](CCC(=O)O)C(=O)N[C@@H](CCSC)C(=O)N[C@@H](CCC(N)=O)C(=O)N[C@@H](CCCNC(=N)N)C(=O)N[C@@H](CCCCN)C(N)=O [PEP-59, Palm-Glu-Glu-Met-Gln-Arg-Lys-NH2] (Palmitoyl-EEMQRK-NH2)
[1]
  NFKB1 fold induction respect to basal conditions: 1.77
[2]
  S. epidermidis (%), normalized percentage respect to basal conditions: 4.63%

## Ac-EEMERR-NH2 [PEP-47, Ac-Glu-Glu-Met-Glu-Arg-Arg-NH2]
[1]
  NFKB1 fold induction respect to basal conditions: 2.12
[2]
  S. epidermidis (%), normalized percentage respect to basal conditions: 2.91%

## Ac-EEMQRK-OH [PEP-62, Ac-Glu-Glu-Met-Gln-Arg-Lys-OH]
[1]
  NFKB1 fold induction respect to basal conditions: 1.40
[2]
  S. epidermidis (%), normalized percentage respect to basal conditions: 6.78%

## Ac-EEMQKR-NH2 [PEP-46, Ac-Glu-Glu-Met-Gln-Lys-Arg-NH2]
[1]
  NFKB1 fold induction respect to basal conditions: 2.03
[2]
  S. epidermidis (%), normalized percentage respect to basal conditions: 3.97%

## CCCCCCNC(=O)[C@H](CC(=O)O)NC(=O)[C@H](C)NC(=O)[C@H](CCCNC(=N)N)NC(=O)[C@H](CCCNC(=N)N)NC(=O)[C@H](CCC(N)=O)NC(=O)[C@H](CCSC)NC(=O)[C@H](CCC(=O)O)NC(=O)[C@@H](N)CCC(=O)O [PEP-36, H-Glu-Glu-Met-Gln-Arg-Arg-Ala-Asp-NHC6H13] (H-EEMQRRAD-NHHex)
[1]
  NFKB1 fold induction respect to basal conditions: 2.53
[2]
  S. epidermidis (%), normalized percentage respect to basal conditions: 29.93%

## CCCCCCCCCCCCCC(=O)N[C@@H](CCC(=O)O)C(=O)N[C@@H](CCC(=O)O)C(=O)N[C@@H](CCSC)C(=O)N[C@@H](CCC(N)=O)C(=O)N[C@@H](CCCNC(=N)N)C(=O)N[C@@H](CCCNC(=N)N)C(=O)N[C@@H](C)C(=O)N[C@@H](CCC(=O)O)C(N)=O [PEP-29, Myr-Glu-Glu-Met-Gln-Arg-Arg-Ala-Glu-NH2] (Myristoyl-EEMQRRAE-NH2)
[1]
  NFKB1 fold induction respect to basal conditions: 2.72
[2]
  S. epidermidis (%), normalized percentage respect to basal conditions: 33.02%

## Ac-EEMNRRAD-NH2 [PEP-12, Ac-Glu-Glu-Met-Asn-Arg-Arg-Ala-Asp-NH2]
[1]
  NFKB1 fold induction respect to basal conditions: 2.58
[2]
  S. epidermidis (%), normalized percentage respect to basal conditions: 14.00%

## Ac-DEMQRRAD-NH2 [PEP-8, Ac-Asp-Glu-Met-Gln-Arg-Arg-Ala-Asp-NH2]
[1]
  NFKB1 fold induction respect to basal conditions: 2.04
[2]
  S. epidermidis (%), normalized percentage respect to basal conditions: 20.45%

## H-EEMQRR-NH2 [PEP-56, H-Glu-Glu-Met-Gln-Arg-Arg-NH2]
[1]
  NFKB1 fold induction respect to basal conditions: 1.90
[2]
  S. epidermidis (%), normalized percentage respect to basal conditions: 15.75%

## Ac-EELQRRAD-NH2 [PEP-10, Ac-Glu-Glu-Leu-Gln-Arg-Arg-Ala-Asp-NH2]
[1]
  NFKB1 fold induction respect to basal conditions: 2.46
[2]
  S. epidermidis (%), normalized percentage respect to basal conditions: 11.54%

## Ac-EEMERRA-NH2 [PEP-39, Ac-Glu-Glu-Met-Glu-Arg-Arg-Ala-NH2]
[1]
  NFKB1 fold induction respect to basal conditions: 2.62
[2]
  S. epidermidis (%), normalized percentage respect to basal conditions: 71.97%

## Ac-EEMERRAD-OH [PEP-31, Ac-Glu-Glu-Met-Glu-Arg-Arg-Ala-Asp-OH]
[1]
  NFKB1 fold induction respect to basal conditions: 2.24
[2]
  S. epidermidis (%), normalized percentage respect to basal conditions: 29.41%

## Ac-EEMQRRS-NH2 [PEP-37, Ac-Glu-Glu-Met-Gln-Arg-Arg-Ser-NH2]
[1]
  NFKB1 fold induction respect to basal conditions: 2.88
[2]
  S. epidermidis (%), normalized percentage respect to basal conditions: 7.49%

## Ac-EEMQRK-NH2 [PEP-45, Ac-Glu-Glu-Met-Gln-Arg-Lys-NH2]
[1]
  NFKB1 fold induction respect to basal conditions: 2.21
[2]
  S. epidermidis (%), normalized percentage respect to basal conditions: 5.48%

## Ac-EEMQRRKD-NH2 [PEP-24, Ac-Glu-Glu-Met-Gln-Arg-Arg-Lys-Asp-NH2]
[1]
  NFKB1 fold induction respect to basal conditions: 2.46
[2]
  S. epidermidis (%), normalized percentage respect to basal conditions: 10.41%

## Ac-DEMQRR-NH2 [PEP-51, Ac-Asp-Glu-Met-Gln-Arg-Arg-NH2]
[1]
  NFKB1 fold induction respect to basal conditions: 2.41
[2]
  S. epidermidis (%), normalized percentage respect to basal conditions: 65.15%

## Ac-EEMQRRAD-OH [PEP-4, Ac-Glu-Glu-Met-Gln-Arg-Arg-Ala-Asp-OH]
[1]
  NFKB1 fold induction respect to basal conditions: 2.55
[2]
  S. epidermidis (%), normalized percentage respect to basal conditions: 25.36%

## Ac-QEMQRRAD-OH [PEP-32, Ac-Gln-Glu-Met-Gln-Arg-Arg-Ala-Asp-OH]
[1]
  NFKB1 fold induction respect to basal conditions: 2.56
[2]
  S. epidermidis (%), normalized percentage respect to basal conditions: 13.89%

## Ac-EEMQRRPD-NH2 [PEP-22, Ac-Glu-Glu-Met-Gln-Arg-Arg-Pro-Asp-NH2]
[1]
  NFKB1 fold induction respect to basal conditions: 2.69
[2]
  S. epidermidis (%), normalized percentage respect to basal conditions: 81.90%

## Ac-EEMDRRAD-NH2 [PEP-13, Ac-Glu-Glu-Met-Asp-Arg-Arg-Ala-Asp-NH2]
[1]
  NFKB1 fold induction respect to basal conditions: 2.60
[2]
  S. epidermidis (%), normalized percentage respect to basal conditions: 21.79%

## CCCCCCCCCCCCCC(=O)N[C@@H](CCC(=O)O)C(=O)N[C@@H](CCC(=O)O)C(=O)N[C@@H](CCSC)C(=O)N[C@@H](CCC(N)=O)C(=O)N[C@@H](CCCNC(=N)N)C(=O)N[C@@H](CCCCN)C(N)=O [PEP-60, Myr-Glu-Glu-Met-Gln-Arg-Lys-NH2] (Myristoyl-EEMQRK-NH2)
[1]
  NFKB1 fold induction respect to basal conditions: 1.26
[2]
  S. epidermidis (%), normalized percentage respect to basal conditions: 24.84%

## Ac-NEMQRRA-NH2 [PEP-43, Ac-Asn-Glu-Met-Gln-Arg-Arg-Ala-NH2]
[1]
  NFKB1 fold induction respect to basal conditions: 2.56
[2]
  S. epidermidis (%), normalized percentage respect to basal conditions: 30.17%

## Ac-EEMQRHAD-NH2 [PEP-20, Ac-Glu-Glu-Met-Gln-Arg-His-Ala-Asp-NH2]
[1]
  NFKB1 fold induction respect to basal conditions: 2.71
[2]
  S. epidermidis (%), normalized percentage respect to basal conditions: 16.66%

## H-EEMQRRAE-NH2 [PEP-26, H-Glu-Glu-Met-Gln-Arg-Arg-Ala-Glu-NH2]
[1]
  NFKB1 fold induction respect to basal conditions: 2.55
[2]
  S. epidermidis (%), normalized percentage respect to basal conditions: 18.10%
